The record followed here is publication PMC11720140, “Evaluation of the Anti-Amyloid and Anti-Inflammatory Properties of a Novel Vanadium(IV)–Curcumin Complex in Lipopolysaccharides-Stimulated Primary Rat Neuron-Microglia Mixed Cultures” (International Journal of Molecular Sciences, 2024).

The target of this assay is T1, human insulin (HI) (Homo sapiens, UniProt P01308).
T1 construct: gene INS; HI (Actrapid)
As to the kind of experiment: Thioflavin-T fibrillation assay with insulin ([…] HCl, pH […] °C, […] h). The assay is classed as biochemical.

T1 sequence (P01308 25-54): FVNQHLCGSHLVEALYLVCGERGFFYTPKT
T1 sequence (P01308 90-110): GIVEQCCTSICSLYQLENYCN

Broadly, the EC50 is the concentration that produces a half-maximal response. The low end stands for higher potency in that assay, the high end for lower potency in that assay. In the case of `COc1cc(/C=C/C(=O)CC(=O)/C=C/c2ccc(O)c(OC)c2)ccc1O` [Curcumin], the EC50 was determined as 44.1 µM.
